Results reported in US20090042993A1, “IDENTIFICATION OF NOVEL POST-TRANSLATIONAL PROTEIN MODIFICATIONS” (priority 2007, published 2009).

How the values were obtained:
[1] = tested on: ER membrane ATP transport; experiment: ATP transport into intact ER vesicles; format: biochemical, Chinese Hamster; conditions: vesicles from control and ceramide-treated cells, 5 and 10 μM solute
Source text: Intact vesicles from the endoplasmic reticulum (ER) and the Golgi apparatus were purified on a 10-34% Iodixanol (OptiPrep; Axis-Shield, Norway) continuous gradient as described (Puglielli et al., 2001, Nat. Cell Biol. 3: 905-912). The complete migration of subcellular markers in a typical gradient is shown in Costantini et al., 2006, EMBO J. 25: 1997-2006; Puglielli et al., 2001, Nat. Cell Biol. 3: 905-912. Fractions enriched in ER and Golgi markers (also called ER or Golgi vesicles herein) were separated, pooled together, and resuspended in isotonic/cryogenic buffer (0.25 M sucrose and 10 mM Tris-HCl, pH 7.4) in the presence of protease inhibitors (Roche). Latency of ER and Golgi vesicles was determined with the glucose-6-phosphatase (Clairmont et al., 1992, J. Biol. Chem. 267: 3983-3900) and the sialyl-transferase (Puglielli and Hirschberg, 1999, J. Biol. Chem. 274: 35596-35600) methods, respectively. The purity of the preparation was further confirmed by assaying the above enzymatic activities, together with transport of CMP-sialic acid. […]
Briefly, assays were performed in 100 μl final volume (isotonic/cryogenic buffer) using 25 to 50 μg of ER/Golgi vesicles protein. […] Pellets were then dissolved in 0.6 mL of NaOH 1 N; after neutralization with 0.2 mL of 4N HCl, samples were counted by scintillation spectrometry. […]

BACE1 = experiment: Pulse-chase and cell-surface biotinylation of newly-synthesized BACE1; format: cell-based, human; conditions: BACE1WT expressing cells, 1.5 hours after the pulse
Procedure: Confluent cells were starved for 1 hr in Met/Cys free medium, labeled with 100 μCi [^35S]-Met/Cys (Trans35S-Label, >1000 Ci/mmol; Pierce) in starvation medium/dish and chased for 8, 16, and 24 hours with DMEM supplemented with 5 mM cold Met/Cys. Cell extracts were pre-cleared with BioMag Protein A (Polysciences, Inc.). Beads were used at the concentration of 15 μl of the slurry per sample and separated with a magnetic holder. BACE1 was then immunoprecipitated with anti-BACE1 antibodies and recovered with BioMag Protein A as above. The immunoprecipitate-bead complexes were washed 3 times and boiled in sample buffer. Beads were then separated and the samples were analyzed by reducing SDS-PAGE (on a 4-12% Bis-Tris NuPAGE system) and autoradiography.
For cell-surface biotinylation, cells were labeled as above and chased for 1.5 hours. […] Proteins were eluted and recovered as above; BACE1 was then immunopurified and analyzed by reducing SDS-PAGE and autoradiography.
FIG. 3 illustrates how transient lysine acetylation controls both translocation along the secretory pathway and molecular stability of the nascent BACE1 protein. […] Immunoprecipitates were analyzed by SDS-PAGE and autoradiography. […] BACE1 was then immunoprecipitated as above and analyzed by reducing SDS-PAGE and autoradiography. Results are expressed as percentage of total newly-synthesized BACE1. […]

CCCCCCCCCCCCC/C=C/[C@@H](O)[C@H](CO)NC(=O)CCCCC [ceramide, C6-ceramide]
ATP transport into ER vesicles [1]: no apparent difference
translocation of newly-synthesized BACE1 to the cell surface (BACE1): increasing the translocation of newly-synthesized BACE1 to the cell surface to levels almost similar to BACE1Gln
